# Experimental data reported in US9949980B2, “Drugs to prevent HPV infection” (Wisconsin Alumni Research Foundation, priority 2008, dated 2018).
# Entries after “also recorded” stand apart in the source; their conditions may differ. Like-named read-outs stand apart in the source and are kept apart here.
# How the values were obtained:
# [1] = system: HPV16 pseudovirus; test: microbe, parasite or virus in culture; type: cell-based; settings: HaCaT, HPV16 pseudovirus
# Excerpt: FIG. 2. Dose dependence inhibition of HPV16 pseudovirus infection in a human keratinocyte cell line (HaCaT). Graphed are the dose-dependent effects of lead compounds shown in Table 2 on the efficiency of infection by HPV16 pseudovirus scored by measuring luciferase reporter activity (squares) as well as their effects on cell viability (circles).
# All but one of these compounds (6 is […]) were repurchased and subjected to a tertiary screen performed in the human keratinocyte cell line, HaCaT, and using HPV16 pseudoviruses encoding a third reporter gene, firefly luciferase, transcribed from a different, E1a, promoter.
# The infectivity assay was repeated at least twice and each assay was performed in replicate (n≥3).
# At 4 hours prior to exposure of cell to pseudoviruses, compounds were added to plates in 1% DMSO final concentration at the indicated amounts. Four hours later, 10 multiplicity of infection (M.O.I.) units of HPV16 pseudovirus carrying the plasmid LucF was added to the cells. 72 hours later, cells were lysed and luciferase assays performed using the Luciferase Assay System (Promega Cat. #E1501). For infection studies with HPV11 and HPV31 pseudoviruses, 200 virus genome equivalents (vge) of virus per cell were used. Cell viability was assessed in parallel plates by Luminescent Cell Viability Assay (Promega Cat. #G7571).
# [2] = system: HPV16 pseudovirus; test: Luciferase assay: HPV16 pseudovirus with renilla luciferase reporter (HPV16wpA-RL); settings: renilla luciferase reporter behind HPV16 promoter
# Protocol: The protocol for the secondary screen was identical to that of the primary screen with the exception that all volumes were scaled up by a factor of four. RL activity was measured using the Renilla Luciferase Assay System (Promega).
# [3] = system: HPV16 pseudoviruses; test: microbe, parasite or virus in culture; type: cell-based; settings: for activity at 3 µM: Human papillomavirus 16, HEK-293T, 48 h
# In short: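 Viability was read by CellTiter Glo luminescence on the same wells used for the SEAP infection read-out, after 48 hrs further incubation.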
# [4] = system: HPV16 virus; test: Wild type HPV16 infection in 293T cells, early viral gene expression by real time PCR; type: cell-based; settings: 5 to 10 μM (FIG. 3: 10 μM), 48 hours post infection
# Protocol: FIG. 3. Inhibition of infection by HPV 16 virus. Shown is the relative efficiency of infection by HPV16 virus in 293T cells as scored by quantifying early viral transcription using real time PCR for E2 (dark grey bars), E5 (white bars) and E7 (light grey bars) containing mRNAs at 48 hours post-infection in the absence (DMSO—vehicle only, values set at 100%) or the presence of the indicated compound (10 μM concentration). Data points shown are the average of triplicate sample values. The dotted line indicates the normalized value for no drug (set as 100% infection value).
# The 21 selected compounds were also tested for their ability to inhibit infection by bonafide HPV16 in 293T cells by measuring early viral gene expression by real time PCR at 48 hours post infection (FIG. 3) after treatment of the cell with 5 to 10 μM of each compound. Consistently with the data of reporter gene assays, HPV early gene expression was inhibited by Compounds 4, 13, 14, 18 and 20. Given the large differences in IC50 and CD50, and the reproducible capacity to inhibit infection by HPV16 pseudovirus and HPV16 virus in different cell types, Compounds 13 and 14 were selected for further analysis.
# After 2 day infection, total RNA was isolated from infected cell lysate and treated with DNase I (Promega) as previously. (Pyeon, D. et al., Establishment of human papillomavirus infection requires cell cycle progression, PLos Pathog. 2009 February; 5(2):e1000318. Epub 2009 Feb. 27). Complementary DNA (cDNA) was synthesized from the normalized total RNA with the SuperScript cDNA synthesis kit (Invitrogen). All oligonucleotide primers (0.5 μM) for PCR are previously published (Pyeon D. et al., Production of infectious human papillomavirus independently of viral replication and epithelial cell differentiation, Proc. Nat'l Acad. Sci. USA, 2005 Jun. 28; 102(26):9311-6, Epub 2005 Jun. 15) or listed in Table 2.
# Conventional PCR was performed with Taq DNA polymerase (Promega) and the following cycle: denaturation at 94° C. for 5 min, 42 cycles of 94° C. for 30 sec., 55° C. for 1 min., and 72° C. for 1 min., followed by extension at 72° C. for 7 min. Final products were analyzed by 1% agarose gel electrophoresis and ethidium bromide staining. Quantitative RT-PCR was performed using QuantiTect SYBR green PCR kit (Qiagen) with the following cycle: denaturation at 95° C. for 5 min. and 40 cycles of 95° C. for 30 sec., 55° C. for 30 sec., and 72° C. for 30 sec.
# [5] = in vitro; settings: human
# [6] = system: 293T cells; test: Primary HTS: cell viability (CellTiter Glo) in parallel on the same wells; settings: 3 μM HTS standard concentration, 293T cells
Molecule,"Effect on infection and cytotoxicity, assayed independently [1]",Luciferase assay RL % Average [2] [%],"activity at 3 µM ([3]; read-out: Infectivity (SEAP Activity), 3 μM HTS standard concentration, 293T cells, 48 hrs) [%]","activity at 3 µM ([3]; read-out: Infectivity vs. viability, 3 μM HTS standard concentration, ratio infectivity/viability) [%]","activity at 3 µM ([3]; read-out: Primary HTS SEAP vs Viability, Table 2, first pair of columns (c2)) [%]","activity at 3 µM ([3]; read-out: Primary HTS SEAP vs Viability, Table 2, second pair of columns (c4)) [%]","Inhibition of HPV16 early gene expression (E2, E5, E7 mRNAs) [4]","viability at 52 h, 3 μM ([5]; Primary HTS Viability % Average) [%]","viability at 52 h, 3 μM ([5]; Viability (CelTiter Glow)) [%]","Infectivity (SEAP Activity) ([3]; 3 μM HTS standard concentration, 293T cells, 48 hrs) [%]","Infectivity vs. viability ([3]; 3 μM HTS standard concentration, ratio infectivity/viability) [%]",Viability (CelTiter Glow) [6] [%]
"NNC(=O)c1cc(COc2cc(Cl)cc(Cl)c2)on1 [Compound 4, 5-[(3,5-dichlorophenoxy)methyl]-1,2-oxazole-3-carbohydrazide]",inhibit infection but also to cause cytotoxicity at similar doses,68.26,22.6,25,18.3,26.9,reproducible and significant inhibition; also recorded: inhibited,94.5,90.4,,,
"-[(3-fluorophenypamino]-3-methylpyrido[1,2-a]benzimidazole-4-carbonitrile [Compound 5873417]",,,,,,,,,,46.16,45.53,101.39
